In patent US20240239792A1, “MODULATORS OF BCL-2 OR BCL-2/BCL-XL AND USES THEREOF” (APPICINE THERAPEUTICS (HK) LIMITED, priority 2021, published 2024):

Key:
BCL-XL = biological target: T1, BCL-XL (Homo sapiens, UniProt Q07817); test: HTRF BCL-XL/BAK assay (Cisbio); assay type: binding; conditions: recombinant human Tag1-BCL-XL 2 nM, Tag2-BAK 5 nM
T1 construct: purchased Cisbio 63ADK000CB04PEG
Protocol: (§1) Then the pre-mixed anti-Tag1-Eu^3+ and anti-tag2-XL665 were added to the plate and further incubated at room temperature for another 2 hours. The signals ([…]) were read on Envision 2104 instrument. The IC50 for each compound was derived from fitting the signal of 665/615 nM to the increasing compound concentration.
(§2) Using the above assays, the following compounds were tested.

BCL-2 = biological target: T2, BCL-2 (Homo sapiens, UniProt P10415); test: HTRF BCL-2/BAK assay (Cisbio); assay type: binding; conditions: recombinant human Tag1-BCL-2 2 nM, Tag2-BAK 10 nM
T2 construct: purchased Cisbio 63ADK000CB01PEG
Protocol: as §1, §2

DOHH2 cells = test: CellTiter-Glo cell proliferation assay, DOHH2 cells; assay type: cell-based; conditions: Homo sapiens, DOHH-2, 72 hours
How it was run: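 DOHH2 cells seeded in DMEM + 10% FBS, exposed to serially diluted compound for 72 h at 37 °C, 5% CO2. Viability read by CellTiter-Glo luminescence; GI50 calculated.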

T2 sequence (P10415 whole entry): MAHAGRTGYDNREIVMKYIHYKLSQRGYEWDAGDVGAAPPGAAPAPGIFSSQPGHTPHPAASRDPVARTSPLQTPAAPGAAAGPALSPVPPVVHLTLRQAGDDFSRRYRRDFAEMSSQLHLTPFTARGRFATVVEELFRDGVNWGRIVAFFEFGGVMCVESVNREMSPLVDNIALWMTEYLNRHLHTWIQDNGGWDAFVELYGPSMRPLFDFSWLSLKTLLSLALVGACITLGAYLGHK
T1 sequence (Q07817 whole entry): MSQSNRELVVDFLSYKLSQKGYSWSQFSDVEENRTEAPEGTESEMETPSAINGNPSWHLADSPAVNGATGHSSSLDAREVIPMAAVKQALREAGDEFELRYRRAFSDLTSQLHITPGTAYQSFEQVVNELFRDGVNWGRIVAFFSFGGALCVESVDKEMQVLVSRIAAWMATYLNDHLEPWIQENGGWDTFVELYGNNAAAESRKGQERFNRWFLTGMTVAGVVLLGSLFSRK

Compound	IC50 (BCL-XL) [nM]	IC50 (BCL-2) [nM]	GI50 (DOHH2 cells) [nM]
O=C(NS(=O)(=O)c1ccc(NCC2CCOCC2)c([N+](=O)[O-])c1)c1ccc(N2CCN(C3CCCCc4c(-c5ccn[nH]5)cccc43)CC2)cc1Oc1cnc2[nH]ccc2c1 (stereo not drawn) [Compound 54, 4-(4-(1-(1H-pyrazol-3-yl)-6,7,8,9-tetrahydro-5H-benzo[7]annulen-5-yl)piperazin-1-yl)-2-((1H-pyrrolo[2,3-b]pyridin-5-yl)oxy)-N-((3-nitro-4-(((tetrahydro-2H-pyran-4-yl)methyl)amino)phenyl)sulfonyl)benzamide]	> 2000	< 20	500 to 5000
CS(=O)(=O)Nc1cccc2c1CCCCC2N1CCN(c2ccc(C(=O)NS(=O)(=O)c3ccc(NCC4CCOCC4)c([N+](=O)[O-])c3)c(Oc3cnc4[nH]ccc4c3)c2)CC1 (stereo not drawn) [Compound 56, 2-((1H-pyrrolo[2,3-b]pyridin-5-yl)oxy)-4-(4-(1-(methylsulfonamido)-6,7,8,9-tetrahydro-5H-benzo[7]annulen-5-yl)piperazin-1-yl)-N-((3-nitro-4-(((tetrahydro-2H-pyran-4-yl)methyl)amino)phenyl)sulfonyl)benzamide]	> 2000	20 to 200	> 5000
CC(CO)c1cccc2c1CCCCC2N1CCN(c2ccc(C(=O)NS(=O)(=O)c3ccc(NCC4CCOCC4)c([N+](=O)[O-])c3)c(Oc3cnc4[nH]ccc4c3)c2)CC1 (stereo not drawn) [Compound 61, 2-((1H-pyrrolo[2,3-b]pyridin-5-yl)oxy)-4-(4-(1-(1-hydroxypropan-2-yl)-6,7,8,9-tetrahydro-5H-benzo[7]annulen-5-yl)piperazin-1-yl)-N-((3-nitro-4-(((tetrahydro-2H-pyran-4-yl)methyl)amino)phenyl)sulfonyl)benzamide]	200 to 2000	< 20	500 to 5000
CCP(=O)(CC)c1cccc2c1CCCCC2N1CCN(c2ccc(C(=O)NS(=O)(=O)c3ccc(NCC4CCOCC4)c([N+](=O)[O-])c3)c(Oc3cnc4[nH]ccc4c3)c2)CC1 (stereo not drawn) [Compound 62, 2-((1H-pyrrolo[2,3-b]pyridin-5-yl)oxy)-4-(4-(1-(diethylphosphoryl)-6,7,8,9-tetrahydro-5H-benzo[7]annulen-5-yl)piperazin-1-yl)-N-((3-nitro-4-(((tetrahydro-2H-pyran-4-yl)methyl)amino)phenyl)sulfonyl)benzamide]	> 2000	20 to 200	> 5000
CP(C)(=O)c1cccc2c1CCCCC2N1CCN(c2ccc(C(=O)NS(=O)(=O)c3ccc(NCC4CCOCC4)c([N+](=O)[O-])c3)c(Oc3cnc4[nH]ccc4c3)c2)CC1 (stereo not drawn) [Compound 63, 2-((1H-pyrrolo[2,3-b]pyridin-5-yl)oxy)-4-(4-(1-(dimethylphosphoryl)-6,7,8,9-tetrahydro-5H-benzo[7]annulen-5-yl)piperazin-1-yl)-N-((3-nitro-4-(((tetrahydro-2H-pyran-4-yl)methyl)amino)phenyl)sulfonyl)benzamide]	> 2000	20 to 200	> 5000
O=C(NS(=O)(=O)c1ccc(NCC2COC3OCCC23)c([N+](=O)[O-])c1)c1ccc(N2CCN(C3CCCCc4c(Cl)cccc43)CC2)cc1Oc1cnc2[nH]ccc2c1 (stereo not drawn) [Compound 64, 2-((1H-pyrrolo[2,3-b]pyridin-5-yl)oxy)-4-(4-(1-chloro-6,7,8,9-tetrahydro-5H-benzo[7]annulen-5-yl)piperazin-1-yl)-N-((4-(((hexahydrofuro[2,3-b]furan-3-yl)methyl)amino)-3-nitrophenyl)sulfonyl)benzamide]	20 to 200	< 20	50 to 500
CC(=O)N1CCN(CCNc2ccc(S(=O)(=O)NC(=O)c3ccc(N4CCN([C@@H]5CCCCc6c(Br)cccc65)CC4)cc3Oc3cnc4[nH]ccc4c3)cc2[N+](=O)[O-])CC1 [Compound 65, (R)-2-((1H-pyrrolo[2,3-b]pyridin-5-yl)oxy)-N-((4-((2-(4-acetylpiperazin-1-yl)ethyl)amino)-3-nitrophenyl)sulfonyl)-4-(4-(1-bromo-6,7,8,9-tetrahydro-5H-benzo[7]annulen-5-yl)piperazin-1-yl)benzamide]	< 20	< 20	< 50
O=C(NS(=O)(=O)c1ccc(NCC2CCOCC2)c([N+](=O)[O-])c1)c1ccc(N2CCN([C@@H]3CCCCc4c(Br)cccc43)CC2)cc1Oc1cnc2[nH]ccc2c1 [Compound 66, (R)-2-((1H-pyrrolo[2,3-b]pyridin-5-yl)oxy)-4-(4-(1-bromo-6,7,8,9-tetrahydro-5H-benzo[7]annulen-5-yl)piperazin-1-yl)-N-((3-nitro-4-(((tetrahydro-2H-pyran-4-yl)methyl)amino)phenyl)sulfonyl)benzamide]	20 to 200	< 20	< 50
O=C(NS(=O)(=O)c1ccc(NCC2CCC3(CC2)COC3)c([N+](=O)[O-])c1)c1ccc(N2CCN([C@@H]3CCCCc4c(Br)cccc43)CC2)cc1Oc1cnc2[nH]ccc2c1 [Compound 67, (R)-2-((1H-pyrrolo[2,3-b]pyridin-5-yl)oxy)-N-((4-(((2-oxaspiro[3.5]nonan-7-yl)methyl)amino)-3-nitrophenyl)sulfonyl)-4-(4-(1-bromo-6,7,8,9-tetrahydro-5H-benzo[7]annulen-5-yl)piperazin-1-yl)benzamide]	20 to 200	< 20	< 50
O=C(NS(=O)(=O)c1ccc(NCCN2CCC3(CC2)COC3)c([N+](=O)[O-])c1)c1ccc(N2CCN([C@@H]3CCCCc4c(Br)cccc43)CC2)cc1Oc1cnc2[nH]ccc2c1 [Compound 68, (R)-2-((1H-pyrrolo[2,3-b]pyridin-5-yl)oxy)-N-((4-((2-(2-oxa-7-azaspiro[3.5]nonan-7-yl)ethyl)amino)-3-nitrophenyl)sulfonyl)-4-(4-(1-bromo-6,7,8,9-tetrahydro-5H-benzo[7]annulen-5-yl)piperazin-1-yl)benzamide]	< 20	< 20	< 50
CN1CCC(CNc2ccc(S(=O)(=O)NC(=O)c3ccc(N4CCN([C@@H]5CCCCc6c(Br)cccc65)CC4)cc3Oc3cnc4[nH]ccc4c3)cc2[N+](=O)[O-])CC1 [Compound 69, (R)-2-((1H-pyrrolo[2,3-b]pyridin-5-yl)oxy)-4-(4-(1-bromo-6,7,8,9-tetrahydro-5H-benzo[7]annulen-5-yl)piperazin-1-yl)-N-((4-(((1-methylpiperidin-4-yl)methyl)amino)-3-nitrophenyl)sulfonyl)benzamide]	< 20	< 20	< 50
O=C(NS(=O)(=O)c1ccc(NCC2CCC3(CC2)COC3)c([N+](=O)[O-])c1)c1ccc(N2CCN([C@@H]3CCCCc4c(Cl)cccc43)CC2)cc1Oc1cnc2[nH]ccc2c1 [Compound 71, (R)-2-((1H-pyrrolo[2,3-b]pyridin-5-yl)oxy)-N-((4-(((2-oxaspiro[3.5]nonan-7-yl)methyl)amino)-3-nitrophenyl)sulfonyl)-4-(4-(1-chloro-6,7,8,9-tetrahydro-5H-benzo[7]annulen-5-yl)piperazin-1-yl)benzamide]	20 to 200	< 20	< 50
O=C(NS(=O)(=O)c1ccc(NCC2CC3(COC3)C2)c([N+](=O)[O-])c1)c1ccc(N2CCN([C@@H]3CCCCc4c(Cl)cccc43)CC2)cc1Oc1cnc2[nH]ccc2c1 [Compound 72, (R)-2-((1H-pyrrolo[2,3-b]pyridin-5-yl)oxy)-N-((4-(((2-oxaspiro[3.3]heptan-6-yl)methyl)amino)-3-nitrophenyl)sulfonyl)-4-(4-(1-chloro-6,7,8,9-tetrahydro-5H-benzo[7]annulen-5-yl)piperazin-1-yl)benzamide]	20 to 200	< 20	< 50
O=C(NS(=O)(=O)c1ccc(NCC2CCOCC2)c([N+](=O)[O-])c1)c1ccc(N2CCN([C@@H]3CCCCc4c3cccc4[N+](=O)[O-])CC2)cc1Oc1cnc2[nH]ccc2c1 [Compound 73, (R)-2-((1H-pyrrolo[2,3-b]pyridin-5-yl)oxy)-N-((3-nitro-4-(((tetrahydro-2H-pyran-4-yl)methyl)amino)phenyl)sulfonyl)-4-(4-(1-nitro-6,7,8,9-tetrahydro-5H-benzo[7]annulen-5-yl)piperazin-1-yl)benzamide]	20 to 200	< 20	50 to 500
O=C(NS(=O)(=O)c1ccc(NCC2CCC3(CC2)COC3)c([N+](=O)[O-])c1)c1ccc(N2CCN([C@@H]3CCCCc4c3cccc4[N+](=O)[O-])CC2)cc1Oc1cnc2[nH]ccc2c1 [Compound 74, (R)-2-((1H-pyrrolo[2,3-b]pyridin-5-yl)oxy)-N-((4-(((2-oxaspiro[3.5]nonan-7-yl)methyl)amino)-3-nitrophenyl)sulfonyl)-4-(4-(1-nitro-6,7,8,9-tetrahydro-5H-benzo[7]annulen-5-yl)piperazin-1-yl)benzamide]	20 to 200	< 20	< 50
O=C(NS(=O)(=O)c1ccc(NCC2CC3(COC3)C2)c([N+](=O)[O-])c1)c1ccc(N2CCN([C@@H]3CCCCc4c3cccc4[N+](=O)[O-])CC2)cc1Oc1cnc2[nH]ccc2c1 [Compound 75, (R)-2-((1H-pyrrolo[2,3-b]pyridin-5-yl)oxy)-N-((4-(((2-oxaspiro[3.3]heptan-6-yl)methyl)amino)-3-nitrophenyl)sulfonyl)-4-(4-(1-nitro-6,7,8,9-tetrahydro-5H-benzo[7]annulen-5-yl)piperazin-1-yl)benzamide]	20 to 200	< 20	< 50
